Entries after “also recorded” stand apart in the source; their conditions may differ.
Key:
[1] = tested on: HL-60 cells; experiment: Reactivity of HL-60 cells with anti-CD33 monoclonal antibody My9 (flow cytometry); assay type: cell-based, human; conditions: day 27, control 97
Description: The monoclonal antibody My9 (Coulter) capable of specifically reacting with immature granulocytes was dissolved by adding 0.5 ml of distilled water per vial.
HL-60 cells prepared as described above under (1) were cultivated in the same manner as in a). On day 27, the cell concentration was adjusted to 1×10^6 cells/ml and 100 μl of each aliquot was reacted with 10 μl of fluorescein (FITC)-labeled My9, followed by flow cytometry.

[2] = tested on: MRL/Mp-1 pr/1 pr mice; experiment: Therapeutic effect on autoimmune disease in MRL mice; assay type: in vivo; conditions: 300 mg/kg oral
Text: Groups of five female MRL/Mp-1 pr/1 pr mice (purchased at 7 weeks of age from Charles River Japan, Inc.) were used at the age of 19 weeks.
Mice of the above strain are known to spontaneously develop autoimmune diseases such as human systemic lupus erythematosus (SLE)-like immune complex glomerulonephritis, lymphoma, vasculitis and polyarthritis (Theofilopolos, A. and Dixon, F. J., Adv. Immunology, 37, 269 (1985); Murphy, E. D., Roths, J. B., Autoimmunity and lymphoproliferation, Elsevier North Holland, N.Y., 207-221 (1978); Taniguchi, Y., Gendai Iryo, 21, 131 (1989); Abe, C.).
Mice in both the Compound 1-treated group and the control group (untreated group) were given a mouse diet (Oriental Yeast) and water.
Compound 1 was used as suspended in 0.5% carboxymethytcellulose (CMC, Dai-ichi Kogyo Seiyaku Co., Ltd.) solution.
Compound 1 was administered by oral garage in a dose of 300 mg/kg body weight daily from the age of 19 weeks to the age of 25 weeks according to the 5-day administration and 2-day cessation schedule (Compound 1-treated group).
Mice in the respective groups were examined for changes in urinary protein, lymphoma diameter, vasculitis of the auricle, and loss of hair.

COc1ccc(C(=O)N2CCN(c3ccc4c(c3)CCC(=O)N4)CC2)cc1OC [Compound 1, 6-[4-(3,4-Dimethoxybenzoyl)-1-piperazinyl]-3,4-dihydrocarbostyril]
Positive rate (%), anti-CD33 My9 ([1]; 1.0 μg/ml): 90%
Positive rate (%), anti-CD33 My9 ([1]; 10 μg/ml): 77%
Urinary protein ([2]; 19 to 25 weeks of age, vs control): tendency of inhibition of the increase in urinary protein
Loss of hair ([2]; FIG. 8, vs control): improvements in vasculitis and loss of hair
Vasculitis ([2]; FIG. 8, vs control): improvements in vasculitis
Lymphoma size, diameter ([2]; control 9.0±0.8 mm): 7.8±1.3 mm
Lymphoma (in words) ([2]; vs control): enlargement of lymphoma was slightly inhibited; also recorded: reduction in lymphoma
